{"source": "patent US20100285959A1", "about": "“HERBICIDAL MIXTURES” (priority 2006, published 2010)", "assay_in_all_cases": "Test 14 field trial, preemergence, growth as percent of control", "key": {"giant ragweed (AMBTR)": {"system": "giant ragweed (AMBTR)", "format": "in vivo, Ambrosia trifida", "description": "(§1) Corn seeds (hybrid ‘Pioneer 31G96 RR’) were planted in mid spring season, 3.8 cm deep in a clay loam soil having 2% organic matter and a pH of 6.6. Plots were 6.1 m long by 3.0 m wide with rows spaced 76 cm apart. Seeds were spaced 15 cm apart within the rows. The field was managed using conventional tillage practices. […] Yellow nutsedge was only evaluated 19 and 28 days after application, and ivyleaf morningglory could only be evaluated 28 days after application. […] Results are the means of the three replicates. This growth inhibition data was converted to results in the form of “plant growth as a percent of control plant growth” using the calculation “100 minus growth inhibition”. […] For “growth as a percent of control” data, Colby's Equation calculates the expected additive effect of herbicidal mixtures having two active ingredients as follows:\n(§2) Ga+b=GaGb/100 • wherein Ga+b is the growth as a percent of control of plants treated with the mixture expected from additive contribution of the individual components, • Ga is the observed growth as a percent of control of plants treated with the first active ingredient at the same use rate as in the mixture, and • Gb is the observed growth as a percent of control of plants treated with the second active ingredient at the same use rate as in the mixture. For mixtures having three active ingredients, Colby's Equation to calculate the expected additive effect of herbicidal mixtures is as follows:\n(§3) Ga+b+c=GaGbGc/10,000 • wherein Ga and Gb are as defined above and • Ga+b+c is the growth as a percent of control of plants treated with the mixture expected from additive contribution of the individual components, and • Gc is the observed growth as a percent of control of plants treated with the third active ingredient at the same use rate as in the mixture. When these two forms of Colby's Equation are used, if the observed effects on weeds are less than the expected values, the mixture is synergistic."}, "yellow nutsedge (CYPES)": {"system": "yellow nutsedge (CYPES)", "format": "in vivo, Cyperus esculentus", "description": "as §1, §2, §3"}, "velvetleaf (ABUTH)": {"system": "velvetleaf (ABUTH)", "format": "in vivo, Abutilon theophrasti", "description": "as §1, §2, §3"}, "[1]": {"system": "ladysthumb smartweed (POLPE)", "format": "in vivo, Polygonum persicaria", "description": "as §1, §2, §3"}, "giant foxtail (SETFA)": {"system": "giant foxtail (SETFA)", "format": "in vivo, Setaria faberi", "description": "as §1, §2, §3"}, "jimsonweed (DATST)": {"system": "jimsonweed (DATST)", "format": "in vivo, Datura stramonium", "description": "as §1, §2, §3"}, "[2]": {"system": "ivyleaf morningglory (IPOHE)", "format": "in vivo, Ipomoea hederacea", "conditions": "28 DAA", "description": "as §1, §2, §3"}, "common ragweed (AMBEL)": {"system": "common ragweed (AMBEL)", "format": "in vivo, Ambrosia artemisiifolia", "description": "as §1, §2, §3"}}}
{"smiles": "CCS(=O)(=O)c1cccnc1S(=O)(=O)NC(=O)Nc1nc(OC)cc(OC)n1", "note": "[Rimsulfuron]", "values": [{"measurement": "Obs growth % of control", "setting": "giant ragweed (AMBTR); 19 DAA, 12 g a.i./ha", "result": 88, "unit": "%"}, {"measurement": "Obs growth % of control", "setting": "giant ragweed (AMBTR); 19 DAA, 24 g a.i./ha", "result": 80, "unit": "%"}, {"measurement": "Obs growth % of control", "setting": "giant ragweed (AMBTR); 19 DAA, 36 g a.i./ha", "result": 75, "unit": "%"}, {"measurement": "Obs growth % of control", "setting": "giant ragweed (AMBTR); 28 DAA, 12 g a.i./ha", "result": 100, "unit": "%"}, {"measurement": "Obs growth % of control", "setting": "giant ragweed (AMBTR); 28 DAA, 24 g a.i./ha", "result": 60, "unit": "%"}, {"measurement": "Obs growth % of control", "setting": "giant ragweed (AMBTR); 28 DAA, 36 g a.i./ha", "result": 60, "unit": "%"}, {"measurement": "Obs growth % of control", "setting": "giant ragweed (AMBTR); 56 DAA, 12 g a.i./ha", "result": 90, "unit": "%"}, {"measurement": "Obs growth % of control", "setting": "giant ragweed (AMBTR); 56 DAA, 24 g a.i./ha", "result": 83, "unit": "%"}, {"measurement": "Obs growth % of control", "setting": "giant ragweed (AMBTR); 56 DAA, 36 g a.i./ha", "result": 68, "unit": "%"}, {"measurement": "Obs growth % of control", "setting": "yellow nutsedge (CYPES); 19 DAA, 12 g a.i./ha", "result": 85, "unit": "%"}, {"measurement": "Obs growth % of control", "setting": "yellow nutsedge (CYPES); 19 DAA, 24 g a.i./ha", "result": 85, "unit": "%"}, {"measurement": "Obs growth % of control", "setting": "yellow nutsedge (CYPES); 19 DAA, 36 g a.i./ha", "result": 70, "unit": "%"}, {"measurement": "Obs growth % of control", "setting": "yellow nutsedge (CYPES); 28 DAA, 12 g a.i./ha", "result": 83, "unit": "%"}, {"measurement": "Obs growth % of control", "setting": "yellow nutsedge (CYPES); 28 DAA, 24 g a.i./ha", "result": 60, "unit": "%"}, {"measurement": "Obs growth % of control", "setting": "yellow nutsedge (CYPES); 28 DAA, 36 g a.i./ha", "result": 50, "unit": "%"}, {"measurement": "Obs growth % of control", "setting": "velvetleaf (ABUTH); 19 DAA, 12 g a.i./ha", "result": 78, "unit": "%"}, {"measurement": "Obs growth % of control", "setting": "velvetleaf (ABUTH); 19 DAA, 24 g a.i./ha", "result": 62, "unit": "%"}, {"measurement": "Obs growth % of control", "setting": "velvetleaf (ABUTH); 19 DAA, 36 g a.i./ha", "result": 52, "unit": "%"}, {"measurement": "Obs growth % of control", "setting": "velvetleaf (ABUTH); 28 DAA, 12 g a.i./ha", "result": 53, "unit": "%"}, {"measurement": "Obs growth % of control", "setting": "velvetleaf (ABUTH); 28 DAA, 24 g a.i./ha", "result": 13, "unit": "%"}, {"measurement": "Obs growth % of control", "setting": "velvetleaf (ABUTH); 28 DAA, 36 g a.i./ha", "result": 15, "unit": "%"}, {"measurement": "Obs growth % of control", "setting": "velvetleaf (ABUTH); 56 DAA, 12 g a.i./ha", "result": 93, "unit": "%"}, {"measurement": "Obs growth % of control", "setting": "velvetleaf (ABUTH); 56 DAA, 24 g a.i./ha", "result": 65, "unit": "%"}, {"measurement": "Obs growth % of control", "setting": "velvetleaf (ABUTH); 56 DAA, 36 g a.i./ha", "result": 62, "unit": "%"}, {"measurement": "Obs growth % of control", "setting": "[1]; 19 DAA, 12 g a.i./ha", "result": 82, "unit": "%"}, {"measurement": "Obs growth % of control", "setting": "[1]; 19 DAA, 24 g a.i./ha", "result": 58, "unit": "%"}, {"measurement": "Obs growth % of control", "setting": "[1]; 19 DAA, 36 g a.i./ha", "result": 32, "unit": "%"}, {"measurement": "Obs growth % of control", "setting": "[1]; 28 DAA, 12 g a.i./ha", "result": 100, "unit": "%"}, {"measurement": "Obs growth % of control", "setting": "[1]; 28 DAA, 24 g a.i./ha", "result": 33, "unit": "%"}, {"measurement": "Obs growth % of control", "setting": "[1]; 28 DAA, 36 g a.i./ha", "result": 35, "unit": "%"}, {"measurement": "Obs growth % of control", "setting": "[1]; 56 DAA, 12 g a.i./ha", "result": 100, "unit": "%"}, {"measurement": "Obs growth % of control", "setting": "giant foxtail (SETFA); 19 DAA, 12 g a.i./ha", "result": 32, "unit": "%"}, {"measurement": "Obs growth % of control", "setting": "giant foxtail (SETFA); 19 DAA, 24 g a.i./ha", "result": 33, "unit": "%"}, {"measurement": "Obs growth % of control", "setting": "giant foxtail (SETFA); 19 DAA, 36 g a.i./ha", "result": 7, "unit": "%"}, {"measurement": "Obs growth % of control", "setting": "giant foxtail (SETFA); 28 DAA, 12 g a.i./ha", "result": 33, "unit": "%"}, {"measurement": "Obs growth % of control", "setting": "giant foxtail (SETFA); 28 DAA, 24 g a.i./ha", "result": 9, "unit": "%"}, {"measurement": "Obs growth % of control", "setting": "giant foxtail (SETFA); 28 DAA, 36 g a.i./ha", "result": 5, "unit": "%"}, {"measurement": "Obs growth % of control", "setting": "giant foxtail (SETFA); 56 DAA, 12 g a.i./ha", "result": 70, "unit": "%"}, {"measurement": "Obs growth % of control", "setting": "giant foxtail (SETFA); 56 DAA, 24 g a.i./ha", "result": 40, "unit": "%"}, {"measurement": "Obs growth % of control", "setting": "giant foxtail (SETFA); 56 DAA, 36 g a.i./ha", "result": 28, "unit": "%"}, {"measurement": "Obs growth % of control", "setting": "jimsonweed (DATST); 19 DAA, 12 g a.i./ha", "result": 100, "unit": "%"}, {"measurement": "Obs growth % of control", "setting": "jimsonweed (DATST); 19 DAA, 24 g a.i./ha", "result": 93, "unit": "%"}, {"measurement": "Obs growth % of control", "setting": "jimsonweed (DATST); 19 DAA, 36 g a.i./ha", "result": 85, "unit": "%"}, {"measurement": "Obs growth % of control", "setting": "jimsonweed (DATST); 28 DAA, 12 g a.i./ha", "result": 100, "unit": "%"}, {"measurement": "Obs growth % of control", "setting": "jimsonweed (DATST); 28 DAA, 24 g a.i./ha", "result": 62, "unit": "%"}, {"measurement": "Obs growth % of control", "setting": "jimsonweed (DATST); 28 DAA, 36 g a.i./ha", "result": 48, "unit": "%"}, {"measurement": "Obs growth % of control", "setting": "jimsonweed (DATST); 56 DAA, 12 g a.i./ha", "result": 100, "unit": "%"}, {"measurement": "Obs growth % of control", "setting": "jimsonweed (DATST); 56 DAA, 24 g a.i./ha", "result": 92, "unit": "%"}, {"measurement": "Obs growth % of control", "setting": "jimsonweed (DATST); 56 DAA, 36 g a.i./ha", "result": 92, "unit": "%"}, {"measurement": "Obs growth % of control", "setting": "[2]; 12 g a.i./ha", "result": 100, "unit": "%"}, {"measurement": "Obs growth % of control", "setting": "[2]; 24 g a.i./ha", "result": 3, "unit": "%"}, {"measurement": "Obs growth % of control", "setting": "[2]; 36 g a.i./ha", "result": 43, "unit": "%"}, {"measurement": "Obs growth % of control", "setting": "common ragweed (AMBEL); 19 DAA, 12 g a.i./ha", "result": 88, "unit": "%"}, {"measurement": "Obs growth % of control", "setting": "common ragweed (AMBEL); 19 DAA, 24 g a.i./ha", "result": 80, "unit": "%"}, {"measurement": "Obs growth % of control", "setting": "common ragweed (AMBEL); 19 DAA, 36 g a.i./ha", "result": 68, "unit": "%"}, {"measurement": "Obs growth % of control", "setting": "common ragweed (AMBEL); 28 DAA, 12 g a.i./ha", "result": 100, "unit": "%"}, {"measurement": "Obs growth % of control", "setting": "common ragweed (AMBEL); 28 DAA, 24 g a.i./ha", "result": 45, "unit": "%"}, {"measurement": "Obs growth % of control", "setting": "common ragweed (AMBEL); 28 DAA, 36 g a.i./ha", "result": 33, "unit": "%"}, {"measurement": "Obs growth % of control", "setting": "common ragweed (AMBEL); 56 DAA, 12 g a.i./ha", "result": 85, "unit": "%"}, {"measurement": "Obs growth % of control", "setting": "common ragweed (AMBEL); 56 DAA, 24 g a.i./ha", "result": 63, "unit": "%"}, {"measurement": "Obs growth % of control", "setting": "common ragweed (AMBEL); 56 DAA, 36 g a.i./ha", "result": 53, "unit": "%"}]}
